ChEMBL document CHEMBL3886160, “1,2,4-triazine-6-carboxamide derivative” (2015)

Target: Tyrosine-protein kinase SYK (Homo sapiens, UniProt P43405)
Experiment: Syk Kinase Inhibition Assay: The in vitro inhibitory activity of the compound of the present invention against Syk kinase activity was assayed under the following conditions: the purified human Syk protein used in the test were purchased from Carna Biosciences, Inc. For the inhibitory activity assay on the compound, the compound of the present invention was first serially diluted with dimethyl …
Description: Syk Kinase Inhibition Assay: The in vitro inhibitory activity of the compound of the present invention against Syk kinase activity was assayed under the following conditions: the purified human Syk protein used in the test were purchased from Carna Biosciences, Inc. For the inhibitory activity assay on the compound, the compound of the present invention was first serially diluted with dimethyl sulfoxide (DMSO). […] The kinase reaction was stopped by the addition thereto of EDTA.

IC50 [nM] | SMILES
0.37 | Cc1cc(Nc2nc(N[C@@H]3CCOC[C@@H]3N)nnc2C(N)=O)cc2ccsc12
0.38 | NC(=O)c1nnc(N[C@@H]2CCCC[C@@H]2N)nc1Nc1nc(-c2ccccc2)cs1

SMILES | IC50 [nM]
NC(=O)c1nnc(N[C@@H]2CCOC[C@@H]2N)nc1Nc1csc2ccccc12 | 0.89
